Literature values as cited in PMC5144109 (Analytical Chemistry, 2016).
“Also recorded” adds a separate entry of the source. Square brackets hold non-standard residues; d marks the D form. Ends that are not written are not given here.

Key:
[1] = target: T1, aminopeptidase M (APM) (Sus scrofa, UniProt P15145); details: positive and negative control of the digestion experiments
T1 sequence (P15145 1-963): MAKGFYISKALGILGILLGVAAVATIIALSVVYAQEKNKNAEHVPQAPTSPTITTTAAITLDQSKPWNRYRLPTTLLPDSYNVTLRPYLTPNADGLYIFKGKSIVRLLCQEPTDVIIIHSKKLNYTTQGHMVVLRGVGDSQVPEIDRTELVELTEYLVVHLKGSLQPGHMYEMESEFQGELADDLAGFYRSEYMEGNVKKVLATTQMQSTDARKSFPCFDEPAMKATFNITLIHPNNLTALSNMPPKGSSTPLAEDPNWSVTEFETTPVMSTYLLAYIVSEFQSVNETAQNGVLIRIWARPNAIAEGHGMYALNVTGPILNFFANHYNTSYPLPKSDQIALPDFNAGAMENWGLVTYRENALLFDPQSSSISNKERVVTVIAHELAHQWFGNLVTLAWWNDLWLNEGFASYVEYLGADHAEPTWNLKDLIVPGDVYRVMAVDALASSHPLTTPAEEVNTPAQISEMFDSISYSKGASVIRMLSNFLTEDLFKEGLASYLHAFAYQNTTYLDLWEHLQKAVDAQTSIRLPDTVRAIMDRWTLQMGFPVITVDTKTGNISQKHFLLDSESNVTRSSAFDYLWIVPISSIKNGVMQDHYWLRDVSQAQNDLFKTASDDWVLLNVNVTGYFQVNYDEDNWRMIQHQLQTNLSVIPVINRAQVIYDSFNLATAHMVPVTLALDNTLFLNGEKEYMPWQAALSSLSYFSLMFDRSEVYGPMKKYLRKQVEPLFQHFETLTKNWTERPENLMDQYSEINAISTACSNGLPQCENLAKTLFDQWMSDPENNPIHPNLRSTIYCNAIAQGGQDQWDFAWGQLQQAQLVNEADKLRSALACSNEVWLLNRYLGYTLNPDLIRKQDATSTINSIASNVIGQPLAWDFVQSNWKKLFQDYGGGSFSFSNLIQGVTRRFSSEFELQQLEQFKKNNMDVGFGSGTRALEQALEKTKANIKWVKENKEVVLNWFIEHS

[2] = test system: opioid receptors; details: in mammals

Row | Substance | digestion by APM (control peptides) [1] | potency compared with morphine [2]
1 | Asn-[dW]-Phe-NH2 [NdWFamide] | is not digested by APM; also recorded: known to resist degradation by APM | –
2 | Human angiotensin I acetate salt hydrate | is digested by APM | –
3 | dermorphin | – | higher potency than morphine
